Measurements taken from patent US20250327793A1, “METHODS OF IDENTIFYING COMPOUNDS THAT MODULATE LAUNDRY MALODOR, MOLDY MALODOR, OR SWEAT MALODOR” (Firmenich SA, priority 2017, published 2025).
Values belong to the compound of their own block, whether it stands above or below them.

Legend:
Olfr398 = test: Cell-based OR activation assay (cAMP accumulation); parameters: species or system mouse; conditions: FIG. 6; OR-dependent accumulation of cAMP
Olfr93 = test: Cell-based OR activation assay (cAMP accumulation); parameters: species or system mouse; conditions: FIG. 6; OR-dependent accumulation of cAMP
Olfr1364 = test: Cell-based OR activation assay (cAMP accumulation); parameters: species or system mouse; conditions: FIG. 6; OR-dependent accumulation of cAMP
Olfr120 = test: Cell-based OR activation assay (cAMP accumulation); parameters: species or system mouse; conditions: FIG. 6; OR-dependent accumulation of cAMP
Olfr1126 [1] = biological target: Olfr1126 (Mus musculus, UniProt Q7TR49); test: 3-hydroxy-3-methyl-hexanoic acid concentration-dependent activation of Olfr1126: OR-dependent cAMP accumulation in a cell-based assay (functional dose-response); conditions: agonist, mouse Olfr1126 (SEQ ID NO: 46), N-terminal FLAG/Rho/Lucy tags, HEK 293T cells, Gαolf, FIG. 9
Olfr1126 (Mus musculus, UniProt Q7TR49), sequence (Q7TR49 1-314): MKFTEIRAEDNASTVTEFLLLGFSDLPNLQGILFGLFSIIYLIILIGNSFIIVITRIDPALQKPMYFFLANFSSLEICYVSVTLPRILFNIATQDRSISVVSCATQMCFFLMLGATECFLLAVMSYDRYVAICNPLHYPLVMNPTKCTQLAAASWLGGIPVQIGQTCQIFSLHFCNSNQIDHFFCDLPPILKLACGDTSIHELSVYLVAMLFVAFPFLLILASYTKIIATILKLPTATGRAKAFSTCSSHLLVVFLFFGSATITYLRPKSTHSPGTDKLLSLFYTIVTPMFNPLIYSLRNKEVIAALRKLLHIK
Source text: (§1) The detection method pertains to OR-dependent accumulation of cAMP in said cells, as a result of OR activation by 3-hydroxy-3-methyl-hexanoic acid.
(§2) In a further embodiment, to complete the deorphanization process, the candidate OR genes are further expressed in vitro for confirmation of activity against the compounds used to isolate the olfactory sensory neurons and other structurally-related compounds of interest. […]
(§3) Neurons that were activated by DMTS were further isolated for full transcriptome analysis to identify the responsive odorant receptor. […] Amplified cDNA was then used to generate an Illumina cDNA library for Next-Generation-Sequencing and the generation of 100 base pair single read sequences. […]

Olfr1126 [2] = test: Cell-based OR activation assay (cAMP accumulation); parameters: species or system mouse; conditions: FIG. 9; OR-dependent accumulation of cAMP
Source text: as §1
(§4) In a further embodiment, to complete the deorphanization process, the candidate OR genes are further expressed in vitro for confirmation of activity against the compounds used to isolate the olfactory sensory neurons and other structurally-related compounds of interest. The mouse receptors identified from isolated olfactory neurons that respond to geonol, DMTS, 1-octen-3-ol, butyric acid, 3-methyl-2-hexenoic acid, 3-hydroxy-3-methyl-hexanoic acid or transpirol are modified at their N-terminus with short polypeptide sequences (e.g., FLAG® (SEQ ID NO: 48), Rho (SEQ ID NO: 50; 20 first amino acids of the bovine rhodopsin receptor), and/or Lucy (SEQ ID NO: 52; cleavable leucine-rich signal peptide sequence) tags), transiently expressed in HEK 293T cells, and stimulated separately with geonol, DMTS, 1-octen-3-ol, butyric acid, 3-methyl-2-hexenoic acid, 3-hydroxy-3-methyl-hexanoic acid or transpirol to confirm their identity as bona fide geonol, dimethyl trisulfide (DMTS), 1-octen-3-ol, butyric acid, 3-methyl-2-hexenoic acid, 3-hydroxy-3-methyl-hexanoic acid or transpirol receptors. In a further embodiment, an RTP1 gene can also be expressed in the cell lines whether through activation of the endogenous RTP1 gene or through transformation. […]

OR2W1 [3] = biological target: T1, OR2W1 (Homo sapiens, UniProt Q9Y3N9, M81V); test: Cell-based OR activation assay (cAMP accumulation); parameters: expressed in transfected cells; host or cells: HEK293T expressing human Golf; conditions: FIG. 7 and 8; OR-dependent accumulation of cAMP
T1 sequence (Q9Y3N9 1-320 M81V): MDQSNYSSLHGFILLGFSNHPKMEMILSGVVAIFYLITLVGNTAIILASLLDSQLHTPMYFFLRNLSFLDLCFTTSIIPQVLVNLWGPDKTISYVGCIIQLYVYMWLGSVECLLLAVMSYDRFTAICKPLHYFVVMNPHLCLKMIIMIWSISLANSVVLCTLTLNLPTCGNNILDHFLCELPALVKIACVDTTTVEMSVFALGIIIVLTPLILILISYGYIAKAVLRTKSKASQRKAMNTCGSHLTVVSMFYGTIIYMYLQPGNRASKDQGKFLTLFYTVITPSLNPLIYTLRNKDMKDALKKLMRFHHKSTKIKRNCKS
Source text: (§5) The detection method pertains to OR-dependent accumulation of cAMP in said cells, as a result of OR activation by transpirol.
(§6) The detection method pertains to OR-dependent accumulation of cAMP in said cells, as a result of OR activation by 3-methyl-2-hexenoic acid.
as §2
(§7) In the second method, a panel of odorant receptors comprising the 400 putatively functional human receptor repertoire were transfected into a cultured human HEK293T cell line described in WO2014/210585 expressing Human olfactory G-protein alpha subunit (Golf—SEQ. ID No. 49) and coupled to a cyclicAMP reporter. Said panel of in vitro odorant receptors were exposed to MCSs and the level of cAMP signal was measured for each receptor. […]

Olfr641 [4] = biological target: Olfr641 (Mus musculus, UniProt Q8VGX6); test: 3-methyl-2-hexenoic acid concentration-dependent activation of Olfr641: OR-dependent cAMP accumulation in a cell-based assay (functional dose-response); conditions: agonist, mouse Olfr641 (SEQ ID NO: 34), N-terminal FLAG/Rho/Lucy tags, HEK 293T cells, Gαolf, FIG. 8
Olfr641 (Mus musculus, UniProt Q8VGX6), sequence (Q8VGX6 1-312): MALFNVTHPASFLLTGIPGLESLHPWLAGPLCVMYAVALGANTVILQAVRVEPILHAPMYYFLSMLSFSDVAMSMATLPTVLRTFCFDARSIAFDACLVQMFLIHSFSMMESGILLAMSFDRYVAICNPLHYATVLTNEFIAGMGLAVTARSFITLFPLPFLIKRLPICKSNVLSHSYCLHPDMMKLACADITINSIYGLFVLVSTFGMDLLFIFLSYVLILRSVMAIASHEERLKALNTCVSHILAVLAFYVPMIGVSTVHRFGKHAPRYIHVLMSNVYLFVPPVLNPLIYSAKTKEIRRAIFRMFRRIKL
Source text: as §6, §2, §3

OR2W1 [5] = biological target: T1, OR2W1; test: Concentration-dependent activation of OR2W1: OR-dependent cAMP accumulation in a cell-based assay (functional dose-response); parameters: expressed in transfected cells; host or cells: HEK293T; conditions: agonist 3-methyl-2-hexenoic acid, human OR2W1 (SEQ ID NO: 2), HEK293T cells expressing Golf, FIG. 8
Source text: as §5, §6, §2, §7

OR5112 = biological target: T2, OR5112 (Homo sapiens, UniProt Q9H344); test: Cell-based OR activation assay (cAMP accumulation); conditions: FIG. 8; OR-dependent accumulation of cAMP
T2 construct: expressed in transfected cells; host or cells: HEK293T expressing human Golf
T2 sequence (Q9H344 whole entry): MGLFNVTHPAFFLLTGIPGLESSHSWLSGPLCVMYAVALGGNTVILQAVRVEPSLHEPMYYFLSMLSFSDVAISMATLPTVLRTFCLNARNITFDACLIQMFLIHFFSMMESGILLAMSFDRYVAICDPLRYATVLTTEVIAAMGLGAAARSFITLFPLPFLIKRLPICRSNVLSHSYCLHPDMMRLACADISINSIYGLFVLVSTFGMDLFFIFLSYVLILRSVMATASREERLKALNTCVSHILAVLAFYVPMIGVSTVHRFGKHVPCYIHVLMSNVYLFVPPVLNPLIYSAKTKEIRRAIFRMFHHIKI
Source text: as §6, §2, §7

Olfr263 [6] = biological target: Olfr263 (Mus musculus, UniProt Q7TQT8); test: Concentration-dependent activation of Olfr263: OR-dependent cAMP accumulation in a cell-based assay (functional dose-response); conditions: agonist 3-methyl-2-hexenoic acid, mouse Olfr263 (SEQ ID NO: 22), N-terminal FLAG/Rho/Lucy tags, HEK 293T cells, Gαolf, FIG. 8
Olfr263 (Mus musculus, UniProt Q7TQT8), sequence (Q7TQT8 1-317): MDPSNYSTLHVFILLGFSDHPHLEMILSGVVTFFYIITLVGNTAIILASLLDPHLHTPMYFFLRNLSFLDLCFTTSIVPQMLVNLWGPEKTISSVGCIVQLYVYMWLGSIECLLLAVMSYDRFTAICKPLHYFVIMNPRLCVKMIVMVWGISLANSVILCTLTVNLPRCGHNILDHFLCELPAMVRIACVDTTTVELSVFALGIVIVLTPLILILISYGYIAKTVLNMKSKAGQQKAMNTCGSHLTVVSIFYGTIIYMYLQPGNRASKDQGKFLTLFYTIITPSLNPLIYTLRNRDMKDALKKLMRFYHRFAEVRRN
Source text: as §5, §6, §2, §3

OR51I2 = biological target: T3, OR51I2 (Homo sapiens, UniProt Q9H344); test: 3-methyl-2-hexenoic acid concentration-dependent activation of OR51I2: OR-dependent cAMP accumulation in a cell-based assay (functional dose-response); conditions: agonist, human OR51I2 (SEQ ID NO: 20), HEK293T cells expressing Golf, FIG. 8
T3 construct: expressed in transfected cells; host or cells: HEK293T
T3 sequence (Q9H344 whole entry): as the sequence (Q9H344 whole entry) above
Source text: as §6, §2, §7

Olfr263 [7] = test: Cell-based OR activation assay (cAMP accumulation); parameters: species or system mouse; conditions: FIG. 7 and 8; OR-dependent accumulation of cAMP
Source text: as §5, §6
as §4, with “receptors.” for “receptors. In a further embodiment, an RTP1 gene can also be expressed in the cell lines whether through activation of the endogenous RTP1 gene or through transformation.”

Olfr641 [8] = test: Cell-based OR activation assay (cAMP accumulation); parameters: species or system mouse; conditions: FIG. 8; OR-dependent accumulation of cAMP
Source text: as §6, §4

Olfr96 [9] = biological target: Olfr96 (Mus musculus, UniProt Q0VBG2); test: Geonol concentration-dependent activation of Olfr96: OR-dependent cAMP accumulation in a cell-based assay (functional dose-response); conditions: agonist, mouse Olfr96 (SEQ ID NO: 28), N-terminal FLAG/Rho/Lucy tags, HEK 293T cells, Gαolf, FIG. 5
Olfr96 (Mus musculus, UniProt Q0VBG2), sequence (Q0VBG2 1-313): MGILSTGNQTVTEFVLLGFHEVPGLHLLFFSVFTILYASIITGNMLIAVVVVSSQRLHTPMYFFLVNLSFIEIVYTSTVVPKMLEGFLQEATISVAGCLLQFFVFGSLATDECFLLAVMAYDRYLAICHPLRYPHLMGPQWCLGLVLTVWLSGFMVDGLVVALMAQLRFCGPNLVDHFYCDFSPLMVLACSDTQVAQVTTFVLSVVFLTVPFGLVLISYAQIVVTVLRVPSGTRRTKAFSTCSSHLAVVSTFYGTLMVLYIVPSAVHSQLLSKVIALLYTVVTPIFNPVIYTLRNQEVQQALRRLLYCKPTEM
Source text: (§8) The detection method pertains to OR-dependent accumulation of cAMP in said cells, as a result of OR activation by geonol.
as §2, §3

Olfr339 [10] = biological target: Olfr339 (Mus musculus, UniProt Q8VGK8); test: Geonol concentration-dependent activation of Olfr339: OR-dependent cAMP accumulation in a cell-based assay (functional dose-response); conditions: agonist, mouse Olfr339 (SEQ ID NO: 44), N-terminal FLAG/Rho/Lucy tags, HEK 293T cells, Gαolf, FIG. 5
Olfr339 (Mus musculus, UniProt Q8VGK8), sequence (Q8VGK8 1-309): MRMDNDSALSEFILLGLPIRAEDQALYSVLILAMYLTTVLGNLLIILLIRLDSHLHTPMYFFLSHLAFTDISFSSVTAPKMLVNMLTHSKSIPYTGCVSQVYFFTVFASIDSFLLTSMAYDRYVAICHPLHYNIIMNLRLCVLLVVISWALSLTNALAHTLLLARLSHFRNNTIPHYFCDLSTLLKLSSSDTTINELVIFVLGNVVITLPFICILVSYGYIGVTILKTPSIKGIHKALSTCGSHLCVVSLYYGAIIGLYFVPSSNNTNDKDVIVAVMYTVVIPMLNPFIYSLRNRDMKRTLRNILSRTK
Source text: as §8, §2, §3

OR11A1 [11] = biological target: T4, OR11A1 (Homo sapiens, UniProt Q9GZK7); test: Geonol concentration-dependent activation of OR11A1: OR-dependent cAMP accumulation in a cell-based assay (functional dose-response); parameters: expressed in transfected cells; host or cells: HEK293T; conditions: agonist, human OR11A1 (SEQ ID NO: 12), HEK293T cells expressing Golf, FIG. 5
T4 sequence (Q9GZK7 whole entry): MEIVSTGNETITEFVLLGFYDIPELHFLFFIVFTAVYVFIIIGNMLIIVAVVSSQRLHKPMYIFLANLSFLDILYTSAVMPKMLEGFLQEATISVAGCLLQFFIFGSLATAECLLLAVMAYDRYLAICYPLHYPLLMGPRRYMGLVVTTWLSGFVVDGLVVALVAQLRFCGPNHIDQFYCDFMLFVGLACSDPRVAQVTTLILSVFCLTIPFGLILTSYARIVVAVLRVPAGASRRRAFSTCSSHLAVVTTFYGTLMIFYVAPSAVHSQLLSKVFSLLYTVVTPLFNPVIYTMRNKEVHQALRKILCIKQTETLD
Source text: as §8, §2, §7

Olfr1487 [12] = biological target: Olfr1487 (Mus musculus, UniProt Q8VFQ6); test: Geonol concentration-dependent activation of Olfr1487: OR-dependent cAMP accumulation in a cell-based assay (functional dose-response); conditions: agonist, mouse Olfr1487 (SEQ ID NO: 42), N-terminal FLAG/Rho/Lucy tags, HEK 293T cells, Gαolf, FIG. 5
Olfr1487 (Mus musculus, UniProt Q8VFQ6), sequence (Q8VFQ6 1-315): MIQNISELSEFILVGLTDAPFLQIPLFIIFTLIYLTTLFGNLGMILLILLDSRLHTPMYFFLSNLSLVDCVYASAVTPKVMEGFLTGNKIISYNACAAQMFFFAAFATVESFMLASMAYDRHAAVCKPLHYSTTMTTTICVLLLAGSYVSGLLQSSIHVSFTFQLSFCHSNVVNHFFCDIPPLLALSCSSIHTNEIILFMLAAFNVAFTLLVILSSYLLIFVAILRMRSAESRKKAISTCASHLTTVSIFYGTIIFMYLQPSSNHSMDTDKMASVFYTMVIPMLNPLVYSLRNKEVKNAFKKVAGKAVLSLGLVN
Source text: as §8, §2, §3

Olfr1322 [13] = biological target: Olfr1322 (Mus musculus, UniProt Q7TQW3); test: Geonol concentration-dependent activation of Olfr1322: OR-dependent cAMP accumulation in a cell-based assay (functional dose-response); conditions: agonist, mouse Olfr1322 (SEQ ID NO: 73), N-terminal FLAG/Rho/Lucy tags, HEK 293T cells, Gαolf, FIG. 5
Olfr1322 (Mus musculus, UniProt Q7TQW3), sequence (Q7TQW3 1-310): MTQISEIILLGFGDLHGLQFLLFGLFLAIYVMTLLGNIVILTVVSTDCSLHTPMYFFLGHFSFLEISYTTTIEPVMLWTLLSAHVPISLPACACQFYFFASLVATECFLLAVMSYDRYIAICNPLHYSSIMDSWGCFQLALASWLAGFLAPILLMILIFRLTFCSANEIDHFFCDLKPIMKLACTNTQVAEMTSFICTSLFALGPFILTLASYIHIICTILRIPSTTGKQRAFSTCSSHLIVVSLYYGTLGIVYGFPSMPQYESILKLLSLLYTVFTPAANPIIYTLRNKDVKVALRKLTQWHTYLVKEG
Source text: as §8, §2, §3

OR11A1 [14] = biological target: T4, OR11A1; test: Cell-based OR activation assay (cAMP accumulation); parameters: expressed in transfected cells; host or cells: HEK293T expressing human Golf; conditions: FIG. 5; OR-dependent accumulation of cAMP
Olfr1322 [15] = test: Cell-based OR activation assay (cAMP accumulation); parameters: species or system mouse; conditions: FIG. 5; OR-dependent accumulation of cAMP
Olfr339 [16] = test: Cell-based OR activation assay (cAMP accumulation); parameters: species or system mouse; conditions: FIG. 5; OR-dependent accumulation of cAMP
Olfr1487 [17] = test: Cell-based OR activation assay (cAMP accumulation); parameters: species or system mouse; conditions: FIG. 5; OR-dependent accumulation of cAMP
Olfr96 [18] = test: Cell-based OR activation assay (cAMP accumulation); parameters: species or system mouse; conditions: FIG. 5; OR-dependent accumulation of cAMP
Olfr46 = test: Cell-based OR activation assay (cAMP accumulation); parameters: species or system mouse; conditions: FIG. 7; OR-dependent accumulation of cAMP
Source text: as §5, §4

human sensory panel = test: Sensory evaluation of geonol earthy/moss odor in binary mixtures with antagonists; assay type: in vivo; conditions: percentage of geonol malodor (earthy/moss odor) remaining in binary iso-intense mixture vs REF; * = statistically different from geonol alone
Source text: Sensory Evaluation: Five 16 oz glass jars containing either REF (geonol only), geonol only control, antagonist only, mixture of geonol and isointense antagonist, or mixture of geonol and low intensity antagonist were presented to the panelists (last four samples were randomized across panelists). The panelists were asked to familiarize themselves with the earthy/moss odor quality from the REF jar first, then rate the pleasantness, earthy/moss odor intensity and overall odor intensity of the next four samples on a 0-10 linear scale. The inter-stimulus interval between the samples was two minutes to avoid adaptation.

[19] = tested on: OR2W1 or OR1A1 olfactory receptor; test: 1-octen-3-ol olfactory receptor antagonist cell-based inhibitory dose-response assay; conditions: Table 3
Source text: Each cell line was screened with a volatile compound library for their inhibitory properties and potential 1-octen-3-ol smell inhibition.
Single concentration monitoring of the 1-octen-3-ol induced cell activity in the presence or absence of a test compound allowed for the identification of compounds with a putative suppression or inhibitory effect.

[20] = tested on: T5, OR11A1 or OR2M3 olfactory receptor; test: Geonol olfactory receptor antagonist cell-based inhibitory dose-response assay; parameters: species or system human; conditions: Table 2; geonol induced receptor activity, geonol at EC50
T5 construct: fused on or other part: Possibly N-terminal FLAG, Rho and/or Lucy tags

Compound: C=CC(O)CCCCC (stereo not shown) [1-octen-3-ol]
activation of Olfr398 (Olfr398): concentration-dependent and specific activation | activation of Olfr93 (Olfr93): concentration-dependent and specific activation | activation of Olfr1364 (Olfr1364): concentration-dependent and specific activation | activation of Olfr120 (Olfr120): concentration-dependent and specific activation

Compound: CC1CCCC2(C)CCCCC12O [geonol, (4S,4aS,8aR)-4,8a-Dimethyl-1,2,3,4,5,6,7,-octahydronaphthalen-4a-ol]
activation of OR11A1 (OR11A1 [14]): concentration-dependent and specific activation | activation of Olfr1322 (Olfr1322 [15]): concentration-dependent and specific activation | activation of Olfr339 (Olfr339 [16]): concentration-dependent and specific activation | activation of Olfr1487 (Olfr1487 [17]): concentration-dependent and specific activation | activation of Olfr96 (Olfr96 [18]): concentration-dependent and specific activation

Compound: CCCC(C)(S)CCO (stereo not shown) [transpirol, 3-methyl-3-sulfanylhexanol]
activation of OR2W1 (OR2W1 [3]): concentration-dependent and specific activation | activation of Olfr263 (Olfr263 [7]): concentration-dependent and specific activation | activation of Olfr46 (Olfr46): concentration-dependent and specific activation

Compound: isobutylquinoline
% Remaining in human sensory tests (human sensory panel): 52* % | IC50 ([19]; 1-octen-3-ol at single activating concentration (EC50), receptor (OR2W1 or OR1A1) not stated per compound): > 600 µM | % Inhibition ([19]; normalized to baseline agonist activity, 1-octen-3-ol at EC50): 30.14% | % Inhibition [20]: 45%

Now from value to compound, other results behind:

EC50 (Olfr1126 [1]): 40.3 µM
Compound: CCCC(C)(O)CC(=O)O (stereo not shown) [3-hydroxy-3-methyl-hexanoic acid]
activation of Olfr1126 (Olfr1126 [2]): concentration-dependent and specific activation

EC50 (Olfr641 [4]): 1.75 µM | EC50 (OR2W1 [5]): 214 µM | EC50 (Olfr263 [6]): 183 µM | EC50 (OR51I2): 13.9 µM
Compound: CCCC(C)=CC(=O)O [3-methyl-2-hexenoic acid]
activation of OR2W1 (OR2W1 [3]): concentration-dependent and specific activation | activation of OR5112 (OR5112): concentration-dependent and specific activation | activation of Olfr263 (Olfr263 [7]): concentration-dependent and specific activation | activation of Olfr641 (Olfr641 [8]): concentration-dependent and specific activation

EC50 (Olfr96 [9]): 0.0168 µM | EC50 (Olfr339 [10]): 1.28 µM | EC50 (OR11A1 [11]): 2.8 µM | EC50 (Olfr1487 [12]): 3.58 µM | EC50 (Olfr1322 [13]): 37.5 µM
Compound: CC1CCCC2(C)CCCCC12O [Geonol, (4S,4aS,8aR)-4,8a-Dimethyl-1,2,3,4,5,6,7,-octahydronaphthalen-4a-ol]
